These results are taken from US7012099B2, “Use of substituted 4-amino-1-phenylbutan-2-ol compounds as medicaments” (Gruenenthal GmbH, priority 1999, dated 2006).

What is called Ki is the dissociation constant of the complex between target and ligand, obtained from inhibition or displacement.

Molecules are shown by their SMILES. Structures can show the parent of a compound that is named as a salt.

For the assay, the target named is T1, ORL1 receptor (Homo sapiens, UniProt P41146).
T1 construct: expressed in transfected cells; host or cells: CHO (recombinant CHO-ORL1 cells), membranes
T1 sequence (P41146 whole entry): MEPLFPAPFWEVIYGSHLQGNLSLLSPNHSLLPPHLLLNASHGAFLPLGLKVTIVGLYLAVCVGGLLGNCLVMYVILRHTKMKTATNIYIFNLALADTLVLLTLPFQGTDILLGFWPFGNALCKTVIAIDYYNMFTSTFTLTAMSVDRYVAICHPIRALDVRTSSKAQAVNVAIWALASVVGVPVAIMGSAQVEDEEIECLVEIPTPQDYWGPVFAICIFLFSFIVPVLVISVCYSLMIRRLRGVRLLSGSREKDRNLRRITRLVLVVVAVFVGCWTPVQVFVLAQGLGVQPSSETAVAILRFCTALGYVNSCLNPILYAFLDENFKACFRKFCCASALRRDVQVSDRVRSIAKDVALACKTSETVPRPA
As to the kind of experiment: ORL1 receptor binding assay using 3H-nociceptin/orphanin FQ with membranes of recombinant CHO-ORL1 cells. The following applies: 3H-nociceptin/orphanin FQ 0.5 nM, WGA-SPA beads, one hour at room temperature. As for the experimental part: The 4-amino-1-phenylbutan-2-ol compounds of the general formula I have been studied in a receptor binding assay using ^3H-nociceptin/orphanin FQ with membranes of recombinant CHO-ORL1 cells. That test system was carried out according to the method put forward by Ardati et al. (Mol. Pharmacol., 51, 1997, p. 816–824). The concentration of ^3H-nociceptin/orphanin FQ in those tests was 0.5 nM. The binding assays were carried out using in each case 20 μg of membrane protein per 200 μl batch in 50 mM Hepes, pH 7.4, 10 mM MgCl2 and 1 mM EDTA. Binding to the ORL1 receptor was determined using in each case 1 mg of WGA-SPA beads (Amersham-Pharmacia, Freiburg) by incubation of the batch for one hour at room temperature and subsequent measurement in a Trilux scintillation counter (Wallac, Finland). The affinity is given as the Ki value.
For each of the compounds of Examples 1 to 7, the affinity for the ORL1 receptor was determined according to the mentioned molecular-pharmacological investigations.
In the case of `CN(C)C(c1ccccc1)C1CCCCC1(O)Cc1ccc(F)c(F)c1` (stereo not shown) [Example 4, 1-(3,4-difluorobenzyl)-2-(dimethylaminophenylmethyl)cyclohexanol hydrochloride], the Ki was determined as 1.9 µM.

On to `CN(C)C(c1ccccc1)C1CCCCC1(O)Cc1ccccc1Cl` (stereo not shown) [Example 1, 1-(2-Chlorobenzyl)-2-(dimethylaminophenylmethyl)cyclohexanol hydrochloride], for which the Ki stood at 6 µM. `CN(C)C(c1ccccc1)C1CCCCC1(O)Cc1cccc(C(F)(F)F)c1` (stereo not shown) [Example 5, 2-(dimethylaminophenylmethyl)-1-(3-trifluoromethylbenzyl)cyclohexanol hydrochloride]: the Ki worked out at 0.9 µM. With `CN(C)C(c1ccsc1)C1CCCCC1(O)Cc1cccc(C(F)(F)F)c1` (stereo not shown) [Example 7, 2-(dimethylaminothiophen-3-ylmethyl)-1-(3-trifluoromethylbenzyl)cyclohexanol hydrochloride] the figure was 0.33 µM; with `CN(C)C(c1cccs1)C1CCCCC1(O)Cc1cccc(C(F)(F)F)c1` (stereo not shown) [Example 6, 2-(dimethylaminothiophen-2-ylmethyl)-1-(3-trifluoromethylbenzyl)cyclohexanol Hydrochloride], 0.6 µM.

`CN(C)C(c1ccccc1)C1CCCCC1(O)Cc1cccc(Cl)c1` (stereo not shown) [Example 2, 1-(3-chlorobenzyl)-2-(dimethylaminophenylmethyl)cyclohexanol hydrochloride]: the Ki was found to be 2.1 µM. For `CN(C)C(c1ccccc1)C1CCCCC1(O)Cc1ccc(Cl)cc1` (stereo not shown) [Example 3, 1-(4-chlorobenzyl)-2-(dimethylaminophenylmethyl)-1-cyclohexanol hydrochloride], the Ki is 1.7 µM.
